Data reported in ChEMBL document CHEMBL5154770, “Discovery of novel ataxia telangiectasia mutated (ATM) kinase modulators: Computational simulation, biological evaluation and cancer combinational chemotherapy study” (Eur J Med Chem, 2022).
The source made the active and inactive calls. The rule behind the calls is not given here.

Experiments:
[1] = system: SW480; experiment: Antagonistic cytotoxicity against human SW480 cells assessed as combination index measured after 3 days in presence of 5 uM KU55933 by SRB assay; assay type: functional; conditions: time 3 day
[2] = system: MCF7; experiment: Synergistic cytotoxicity against human MCF7 cells assessed as combination index in presence of 10 uM 3-Chloro-4-methoxy-N-((4-(oxazolo[4,5-b]pyridin-2-yl)phenyl)carbamothioyl)benzamide measured after 2 days by SRB assay; assay type: functional; conditions: time 2 day
[3] = system: SW480; experiment: Antagonistic cytotoxicity against human SW480 cells assessed as combination index measured after 3 days in presence of 50 nM AZD0156 by SRB assay; assay type: functional; conditions: time 3 day
[4] = system: NCI-H1299; experiment: Synergistic cytotoxicity against human NCI-H1299 cells assessed as combination index measured in presence of 5 uM KU60019 after 6 days by SRB assay; assay type: functional; conditions: time 6 day
[5] = system: MCF7; experiment: Antagonistic cytotoxicity against human MCF7 cells measured after 2 days in presence of 5 uM KU60019 by SRB assay; assay type: functional, cell-based; conditions: MCF7, 48 h
[6] = system: NCI-H1299; experiment: Additive cytotoxicity against human NCI-H1299 cells measured in presence of 5 uM KU55933 after 6 days by SRB assay; assay type: functional, cell-based; conditions: NCI-H1299, 144 h
[7] = system: MCF7; experiment: Synergistic cytotoxicity against human MCF7 cells measured after 6 days in presence of 5 uM KU60019 by SRB assay; assay type: functional, cell-based; conditions: MCF7, 144 h
[8] = system: MCF7; experiment: Synergistic cytotoxicity against human MCF7 cells in presence of 10 uM 3-Chloro-4-methoxy-N-((4-(oxazolo[4,5-b]pyridin-2-yl)phenyl)carbamothioyl)benzamide measured after 2 days by SRB assay; assay type: functional, cell-based; conditions: MCF7, 48 h
[9] = system: MCF7; experiment: Antagonistic cytotoxicity against human MCF7 cells measured after 2 days in presence of 5 uM KU55933 by SRB assay; assay type: functional, cell-based; conditions: MCF7, 48 h
[10] = system: SW480; experiment: Synergistic cytotoxicity against human SW480 cells assessed as combination index measured after 9 days in presence of 5 uM KU60019 by SRB assay; assay type: functional; conditions: time 9 day
[11] = system: MCF7; experiment: Antagonistic cytotoxicity against human MCF7 cells assessed as combination index measured after 2 days in presence of 50 nM AZD0156 by SRB assay; assay type: functional; conditions: time 2 day
[12] = system: NCI-H1299; experiment: Synergistic cytotoxicity against human NCI-H1299 cells measured in presence of 50 nM AZD0156 after 6 days by SRB assay; assay type: functional, cell-based; conditions: NCI-H1299, 144 h
[13] = system: NCI-H1299; experiment: Cytotoxicity against human NCI-H1299 cells measured in presence of 5 uM 2(((2-(2,4-dichlorobenzyl)oxy)naphthalen-1-yl)methyl)amino)ethan-1-ol after 2 days by SRB assay; assay type: functional, cell-based; conditions: NCI-H1299, 48 h
[14] = system: NCI-H1299; experiment: Synergistic cytotoxicity against human NCI-H1299 cells measured in presence of 5 uM KU60019 after 6 days by SRB assay; assay type: functional, cell-based; conditions: NCI-H1299, 144 h
[15] = system: NCI-H1299; experiment: Additive cytotoxicity against human NCI-H1299 cells assessed as combination index measured in presence of 5 uM KU55933 after 6 days by SRB assay; assay type: functional; conditions: time 6 day
[16] = system: MCF7; experiment: Synergistic cytotoxicity against human MCF7 cells assessed as combination index measured after 6 days in presence of 50 nM AZD0156 by SRB assay; assay type: functional; conditions: time 6 day
[17] = system: SW480; experiment: Cytotoxicity against human SW480 cells measured after 9 days in presence of 5 uM 2(((24(2,4-dichlorobenzyl)oxy)naphthalen-1-yl)methyl)amino)ethan-1-ol by SRB assay; assay type: functional, cell-based; conditions: SW480, 216 h
[18] = system: MCF7; experiment: Antagonistic cytotoxicity against human MCF7 cells assessed as combination index in presence of 10 uM 3-Chloro-4-methoxy-N-((4-(oxazolo[4,5-b]pyridin-2-yl)phenyl)carbamothioyl)benzamide measured after 6 days by SRB assay; assay type: functional; conditions: time 6 day
[19] = system: MCF7; experiment: Antagonistic cytotoxicity against human MCF7 cells in presence of 10 uM 3-Chloro-4-methoxy-N-((4-(oxazolo[4,5-b]pyridin-2-yl)phenyl)carbamothioyl)benzamide measured after 6 days by SRB assay; assay type: functional, cell-based; conditions: MCF7, 144 h
[20] = system: SW480; experiment: Additive cytotoxicity against human SW480 cells measured after 9 days in presence of 5 uM KU55933 by SRB assay; assay type: functional, cell-based; conditions: SW480, 216 h
[21] = system: SW480; experiment: Antagonistic cytotoxicity against human SW480 cells measured after 9 days in presence of 3-Chloro-4-methoxy-N-((4-(oxazolo[4,5-b]pyridin-2-yl)phenyl)carbamothioyl)benzamide by SRB assay; assay type: functional, cell-based; conditions: time 9.0 day
[22] = system: SW480; experiment: Synergistic cytotoxicity against human SW480 cells assessed as combination index measured after 9 days in presence of 50 nM AZD0156 by SRB assay; assay type: functional; conditions: time 9 day
[23] = system: MCF7; experiment: Antagonistic cytotoxicity against human MCF7 cells assessed as combination index measured after 2 days in presence of 5 uM KU60019 by SRB assay; assay type: functional; conditions: time 2 day
[24] = system: NCI-H1299; experiment: Cytotoxicity against human NCI-H1299 cells measured in presence of 5 uM 2(((2-(2,4-dichlorobenzyl)oxy)naphthalen-1-yl)methyl)amino)ethan-1-ol after 6 days by SRB assay; assay type: functional, cell-based; conditions: NCI-H1299, 144 h
[25] = system: SW480; experiment: Synergistic cytotoxicity against human SW480 cells measured after 9 days in presence of 50 nM AZD0156 by SRB assay; assay type: functional, cell-based; conditions: SW480, 216 h
[26] = system: SW480; experiment: Antagonistic cytotoxicity against human SW480 cells assessed as combination index measured after 3 days in presence of 5 uM 2(((24(2,4-dichlorobenzyl)oxy)naphthalen-1-yl)methyl)amino)ethan-1-ol by SRB assay; assay type: functional; conditions: time 3 day
[27] = system: MCF7; experiment: Antagonistic cytotoxicity against human MCF7 cells assessed as combination index measured after 2 days in presence of 5 uM 2(((24(2,4-dichlorobenzyl)oxy)naphthalen-1-yl)methyl)amino)ethan-1-ol by SRB assay; assay type: functional; conditions: time 2 day
[28] = system: MCF7; experiment: Synergistic cytotoxicity against human MCF7 cells measured after 6 days in presence of 50 nM AZD0156 by SRB assay; assay type: functional, cell-based; conditions: MCF7, 144 h
[29] = system: MCF7; experiment: Cytotoxicity against human MCF7 cells measured after 6 days in presence of 5 uM 2(((24(2,4-dichlorobenzyl)oxy)naphthalen-1-yl)methyl)amino)ethan-1-ol by SRB assay; assay type: functional, cell-based; conditions: MCF7, 144 h
[30] = system: NCI-H1299; experiment: Synergistic cytotoxicity against human NCI-H1299 cells assessed as combination index measured in presence of 50 nM AZD0156 after 6 days by SRB assay; assay type: functional; conditions: time 6 day
[31] = system: NCI-H1299; experiment: Additive cytotoxicity against human NCI-H1299 cells measured in presence of 5 uM KU55933 after 2 days by SRB assay; assay type: functional, cell-based; conditions: NCI-H1299, 48 h
[32] = system: NCI-H1299; experiment: Additive cytotoxicity against human NCI-H1299 cells assessed as combination index measured in presence of 5 uM KU55933 after 2 days by SRB assay; assay type: functional; conditions: time 2 day
[33] = system: SW480; experiment: Antagonistic cytotoxicity against human SW480 cells measured after 3 days in presence of 5 uM 2(((24(2,4-dichlorobenzyl)oxy)naphthalen-1-yl)methyl)amino)ethan-1-ol by SRB assay; assay type: functional, cell-based; conditions: SW480, 72 h
[34] = system: SW480; experiment: Additive cytotoxicity against human SW480 cells assessed as combination index measured after 9 days in presence of 5 uM KU55933 by SRB assay; assay type: functional; conditions: time 9 day
[35] = system: SW480; experiment: Synergistic cytotoxicity against human SW480 cells measured after 9 days in presence of 5 uM KU60019 by SRB assay; assay type: functional, cell-based; conditions: SW480, 216 h
[36] = system: SW480; experiment: Antagonistic cytotoxicity against human SW480 cells measured after 3 days in presence of 5 uM KU55933 by SRB assay; assay type: functional, cell-based; conditions: SW480, 72 h
[37] = system: MCF7; experiment: Antagonistic cytotoxicity against human MCF7 cells measured after 2 days in presence of 5 uM 2(((24(2,4-dichlorobenzyl)oxy)naphthalen-1-yl)methyl)amino)ethan-1-ol by SRB assay; assay type: functional, cell-based; conditions: MCF7, 48 h

COc1cc([C@@H]2c3cc4c(cc3[C@@H](O[C@@H]3O[C@@H]5CO[C@@H](C)O[C@H]5[C@H](O)[C@H]3O)[C@H]3COC(=O)[C@H]23)OCO4)cc(OC)c1O [ETOPOSIDE]
CI [1]: 1.4 | CI [2]: 0.84 | CI [3]: 1.3 | CI [4]: 0.77 | IC50 [5]: 87400 nM | IC50 [6]: 460 nM | IC50 [7]: 60 nM | IC50 [8]: 23600 nM | IC50 [9]: 58800 nM | CI [10]: 0.22 | CI [11]: 2.8 | IC50 [12]: 240 nM | IC50 [13]: 11100 nM | IC50 [14]: 230 nM | CI [15]: 0.91 | CI [16]: 0.19 | IC50 [17]: 70 nM | CI [18]: 1.16 | IC50 [19]: 650 nM | IC50 [20]: 80 nM | Activity [21]: Active | CI [22]: 0.17 | CI [23]: 4.2 | IC50 [24]: 710 nM | IC50 [25]: < 10 nM | CI [26]: 2 | CI [27]: 2.8 | IC50 [28]: 110 nM | IC50 [29]: 660 nM | CI [30]: 0.39 | IC50 [31]: 9370 nM | CI [32]: 0.98 | IC50 [33]: 3600 nM | CI [34]: 0.95 | IC50 [35]: < 10 nM | IC50 [36]: 3500 nM | IC50 [37]: 46200 nM

CCc1c2c(nc3ccc(OC(=O)N4CCC(N5CCCCC5)CC4)cc13)-c1cc3c(c(=O)n1C2)COC(=O)[C@]3(O)CC [IRINOTECAN]
CI [1]: 1.6 | CI [2]: 0.78 | CI [3]: 2.4 | CI [4]: 0.66 | IC50 [5]: 38100 nM | IC50 [6]: 1670 nM | IC50 [7]: 1980 nM | IC50 [8]: 26300 nM | IC50 [9]: 38100 nM | CI [10]: 0.25 | CI [11]: 1.3 | IC50 [12]: 220 nM | IC50 [13]: 11100 nM | IC50 [14]: 270 nM | CI [15]: 1.1 | CI [16]: 0.97 | IC50 [17]: 70 nM | CI [18]: 1.16 | IC50 [19]: 1880 nM | IC50 [20]: 600 nM | Activity [21]: Active | CI [22]: 0.22 | CI [23]: 1.6 | IC50 [24]: 1830 nM | IC50 [25]: < 120 nM | CI [26]: 3.2 | CI [27]: 2.1 | IC50 [28]: 160 nM | IC50 [29]: 1680 nM | CI [30]: 0.25 | IC50 [31]: 13100 nM | CI [32]: 1.1 | IC50 [33]: 12400 nM | CI [34]: 1.02 | IC50 [35]: < 120 nM | IC50 [36]: 7200 nM | IC50 [37]: 42400 nM
